Measurements as given in patent publication US12319655B2, “RAF kinase inhibitors and methods of use thereof” (Deciphera Pharmaceuticals, LLC, priority 2021, dated 2025).

What was measured:
[1] = tested on: A375 cells; assay: A375 Cell Proliferation Assay (1); type: cell-based; conditions: Homo sapiens, A-375
Summary of the method: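 Resazurin fluorescence (excitation 540 nm, emission 600 nm, after a further 5-6 h) gave IC50s from triplicate compound dilution series.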

[2] = biological target: B-Raf kinase (SEQ. ID NO: 2) (Homo sapiens (Human), UniProt P15056); assay: Biochemical Assay for B-Raf (1); conditions: Table J, biochemical assay (1); read-out: BRAF (1)
Summary of the method: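 IC50 derived by four-parameter sigmoidal fit of percent inhibition, normalised to uninhibited and reference-inhibitor controls, using reaction rates over 4–5 h. Coupled spectrophotometric readout (NADH loss at 340 nm, 6 h, 30° C.); 1 mM ATP, 30.1 nM MEK, 0.13 nM B-Raf, pH 7.5 Tris buffer, 1% DMSO.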

[3] = tested on: Miapaca-2 cells; assay: MiaPaca-2 Cell Proliferation Assay (1); type: cell-based; conditions: Homo sapiens, MIA PaCa-2, single agent, read-out: MiaPaca2 (1) IC50
Summary of the method: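 Resazurin was added after compound exposure and incubated 5-6 h, then fluorescence read at 540 nm excitation and 600 nm emission to give IC50.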

[4] = tested on: Miapaca-2 cells; assay: MiaPaca-2 Cell Proliferation Assay (2); type: cell-based; conditions: Homo sapiens, MIA PaCa-2, single agent
Experimental: MiaPaca-2 Cell Proliferation Assay (2)
Miapaca-2 cells (catalog #CRL-1420) are obtained from the American Type Culture Collect (ATTC, Manassas, VA). Briefly, cells were grown in DMEM supplemented with 10% characterized fetal bovine serum (Invitrogen, Carlsbad, CA), 2.5% New Zealand sourced horse serum and 1% Penicillin/Streptomycin/L-Glutamine at 37° C., 5% CO2, and 95% humidity. Cells are expanded until reaching 70-95% confluency at which point they are sub-cultured or harvested for assay use. A serial dilution of test compound is dispensed into a 384-well black clear bottom plate in triplicate. Seven hundred fifty cells are added per well in 50 μL complete growth medium in the 384-well plate. Plates are incubated for 67-72 h at 37° C., 5% CO2, and 95% humidity. At the end of the incubation, 10 μL of a 440 μM solution of resazurin (Sigma, St. Louis, MO) in PBS is added to each well of the plate and plates are incubated for an additional 5-6 h at 37° C., 5% CO2, and 95% humidity. Plates are read on a Synergy2 or equivalent reader (Biotek, Winooski VT) using an excitation of 540 nm and an emission of 600 nm. Data is analyzed using Prism software (GraphPad, San Diego, CA) to calculate IC50 values.

Chain of B-Raf kinase (SEQ. ID NO: 2) (P15056 416-766): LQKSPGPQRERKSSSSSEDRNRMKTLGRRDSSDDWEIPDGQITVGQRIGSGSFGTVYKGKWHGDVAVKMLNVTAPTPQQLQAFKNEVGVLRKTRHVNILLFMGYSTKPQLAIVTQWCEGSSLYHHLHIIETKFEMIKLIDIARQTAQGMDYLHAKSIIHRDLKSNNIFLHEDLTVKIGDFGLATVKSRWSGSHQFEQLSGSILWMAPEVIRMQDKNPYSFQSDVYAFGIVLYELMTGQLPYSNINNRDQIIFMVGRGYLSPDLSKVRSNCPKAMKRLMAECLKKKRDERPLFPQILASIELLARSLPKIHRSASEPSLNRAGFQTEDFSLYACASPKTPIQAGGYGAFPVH

Row | Compound | IC50 [1] | IC50 [2] | IC50 [3] | IC50 [4]
1 | COC(=O)Nc1cc(-c2cccc(-c3cc(NC(=O)c4ccnc(C(C)(C)F)c4)cnc3C)c2)ncn1 [Example 404] | 100 to 500 nM | 100 to 500 nM | – | –
2 | COC(=O)Nc1cc(-c2cncc(-c3cc(NC(=O)c4ccnc(C5(C#N)CC5)c4)ccc3C)c2)ncn1 [Example 405] | ≤ 100 nM | ≤ 100 nM | 500 to 1000 nM | –
3 | Cc1ncc(NC(=O)c2ccnc(C(C)(C)F)c2)cc1-c1cncc(-c2cc(NC(=O)C3CC3)ncn2)c1 [Example 406] | ≤ 100 nM | ≤ 100 nM | 500 to 1000 nM | –
4 | Cc1ncc(NC(=O)c2ccnc(C(C)(C)C#N)c2)cc1-c1cccc(-c2cnc3ccccn23)c1 [Example 407] | 1000 to 10000 nM | 500 to 1000 nM | – | –
5 | CNC(=O)c1cc(-c2cncc(-c3cc(NC(=O)c4ccnc(C(C)(C)F)c4)c(F)cc3C)c2)ccn1 [Example 408] | 100 to 500 nM | 100 to 500 nM | – | –
6 | COC(=O)Nc1cc(-c2cnnc(-c3cc(NC(=O)c4cn(C(C)C)nn4)ccc3C)c2)ccn1 [Example 409] | 1000 to 10000 nM | 100 to 500 nM | – | –
7 | Cc1ncc(NC(=O)c2ccnc(C(C)(C)C#N)c2)cc1-c1cncc(-c2cc(NC(=O)C3CC3)ncn2)c1 [Example 410] | ≤ 100 nM | ≤ 100 nM | 1000 to 10000 nM | –
8 | Cc1ccc(NC(=O)c2ccnc(C(C)(C)F)c2)cc1-c1cncc(-c2cc(N)ncn2)c1 [Example 411] | 500 to 1000 nM | ≤ 100 nM | 1000 to 10000 nM | –
9 | Cc1ccc(NC(=O)c2cn(C(C)C)nn2)cc1-c1cncc(-c2cc(NC(=O)C3CC3)ncn2)c1 [Example 412] | ≤ 100 nM | ≤ 100 nM | 500 to 1000 nM | –
10 | CNC(=O)c1cc(-c2cncc(-c3cc(NC(=O)c4ccnc(C(C)(C)F)c4)ccc3C)c2)ccn1 [Example 413] | ≤ 100 nM | ≤ 100 nM | 1000 to 10000 nM | –
11 | COC(=O)Nc1cc(-c2cncc(-c3cc(NC(=O)c4ccnc(C(C)(C)C#N)c4)ccc3C)c2)ncn1 [Example 414] | ≤ 100 nM | ≤ 100 nM | 100 to 500 nM | –
12 | COC(=O)Nc1cc(-c2cccc(-c3cc(NC(=O)Cn4cc(C(C)C)nn4)cnc3C)c2)ccn1 [Example 415] | 1000 to 10000 nM | 500 to 1000 nM | – | –
13 | COC(=O)Nc1cc(-c2cc(-c3cc(NC(=O)c4ccnc(C(C)(C)F)c4)ccc3C)nc(C)n2)ccn1 [Example 416] | 100 to 500 nM | ≤ 100 nM | 500 to 1000 nM | –
14 | Cc1ccc(NC(=O)c2ccnc(C(C)(C)F)c2)cc1-c1cncc(-c2ccnc(NC(=O)C3CC3)c2)c1 [Example 417] | ≤ 100 nM | ≤ 100 nM | 500 to 1000 nM | –
15 | Cc1cc(F)c(NC(=O)c2ccnc(C(C)(C)C#N)c2)cc1-c1cncc(-c2ccnc(NC(=O)C3CC3)c2)c1 [Example 418] | ≤ 100 nM | ≤ 100 nM | 100 to 500 nM | –
16 | Cc1ccc(NC(=O)c2ccnc(C(C)(F)F)c2)cc1-c1cncc(-c2cc(NC(=O)C3CC3)ncn2)c1 [Example 419] | ≤ 100 nM | ≤ 100 nM | 100 to 500 nM | –
17 | Cc1ccc(NC(=O)c2ccnc(C(C)(C)C#N)c2)cc1-c1cncc(-c2cc(NC(=O)C(C)C)ncn2)c1 [Example 420] | ≤ 100 nM | ≤ 100 nM | – | –
18 | Cc1ccc(NC(=O)c2cc(C3CC3)on2)cc1-c1cncc(-c2cc(NC(=O)C3CC3)ncn2)c1 [Example 421] | ≤ 100 nM | ≤ 100 nM | 1000 to 10000 nM | –
19 | Cc1ccc(NC(=O)c2ccnc(C(C)(C)C#N)c2)cc1-c1cncc(-c2cc(N)ncn2)c1 [Example 422] | 1000 to 10000 nM | 100 to 500 nM | – | –
20 | Cc1cc(F)c(NC(=O)c2ccnc(C(C)(C)F)c2)cc1-c1cncc(-c2cc(NC(=O)C3CC3)ncn2)c1 [Example 423] | ≤ 100 nM | ≤ 100 nM | – | –
21 | Cc1cc(F)c(NC(=O)c2ccnc(C(C)(C)C#N)c2)cc1-c1cncc(-c2cc(NC(=O)C3CC3)ncn2)c1 [Example 424] | ≤ 100 nM | ≤ 100 nM | – | –
22 | COC(=O)Nc1cc(-c2cncc(-c3cc(NC(=O)c4ccnc(C(C)(C)F)c4)ccc3C)c2)ncn1 [Example 425] | ≤ 100 nM | ≤ 100 nM | – | –
23 | CNC(=O)c1cc(-c2nccc(-c3cc(NC(=O)c4ccnc(C(C)(C)F)c4)c(F)cc3C)n2)ccn1 [Example 427] | 100 to 500 nM | 100 to 500 nM | 1000 to 10000 nM | –
24 | CNC(=O)c1cc(-c2cc(-c3cc(NC(=O)c4ccnc(C(C)(C)F)c4)ccc3C)nc(C)n2)ccn1 [Example 428] | 100 to 500 nM | 100 to 500 nM | – | –
25 | Cc1ccc(NC(=O)c2ccnc(C(F)F)c2)cc1-c1cncc(-c2cc(NC(=O)C3CC3)ncn2)c1 [Example 429] | ≤ 100 nM | ≤ 100 nM | – | –

Row | Compound | IC50 [1] | IC50 [2] | IC50 [3] | IC50 [4]
26 | Cc1ccc(NC(=O)c2cnn(C3CC3)c2)cc1-c1cncc(-c2cc(NC(=O)C3CC3)ncn2)c1 [Example 430] | 100 to 500 nM | ≤ 100 nM | 1000 to 10000 nM | –
27 | Cc1ccc(NC(=O)c2cc(C(C)(C)C)on2)cc1-c1cncc(-c2cc(NC(=O)C3CC3)ncn2)c1 [Example 431] | ≤ 100 nM | ≤ 100 nM | 1000 to 10000 nM | –
28 | Cc1ccc(NC(=O)c2ccnc(C(C)(C)F)c2)cc1-c1cncc(-c2ccnc3c2CC(=O)N3)c1 [Example 432] | 500 to 1000 nM | ≤ 100 nM | – | –
29 | Cc1ncc(NC(=O)c2ccnc(C(C)(C)F)c2)cc1-c1cncc(-c2ccnc(NC(=O)C3CC3)c2)c1 [Example 433] | ≤ 100 nM | ≤ 100 nM | 500 to 1000 nM | –
30 | Cc1ccc(NC(=O)c2ccnc(C(C)C)c2)cc1-c1cncc(-c2cc(NC(=O)C3CC3)ncn2)c1 [Example 434] | ≤ 100 nM | ≤ 100 nM | 100 to 500 nM | –
31 | COC(=O)Nc1cc(-c2cncc(-c3cc(NC(=O)c4ccnc(C(C)(C)F)c4)ccc3C)c2)ccn1 [Example 435] | ≤ 100 nM | ≤ 100 nM | 500 to 1000 nM | –
32 | Cc1ccc(NC(=O)c2cc(C3CC3)n(C)n2)cc1-c1nccc(-c2ccnc(NC(=O)C3CC3)c2)n1 [Example 436] | 100 to 500 nM | ≤ 100 nM | 1000 to 10000 nM | –
33 | CNC(=O)c1cc(-c2cc(-c3cc(NC(=O)c4ccnc(C(C)(C)C#N)c4)ccc3OC)ccn2)ccn1 [Example 437] | 1000 to 10000 nM | 100 to 500 nM | 1000 to 10000 nM | –
34 | COc1ccc(NC(=O)c2ccnc(C(C)(C)C#N)c2)cc1-c1cccc(-c2cc(NC(=O)C3CC3)ncn2)c1 [Example 438] | ≤ 100 nM | ≤ 100 nM | 1000 to 10000 nM | –
35 | CNC(=O)c1cc(-c2cncc(-c3cc(NC(=O)c4ccnc(C(C)(F)F)c4)ccc3C)c2)ncn1 [Example 439] | – | – | – | 1000 to 10000 nM
36 | CNC(=O)c1cc(-c2cncc(-c3cc(NC(=O)c4ccnc(C(C)(F)F)c4)ccc3C)c2)ccn1 [Example 440] | – | – | – | 1000 to 10000 nM
37 | CNC(=O)c1cc(-c2cc(-c3cc(NC(=O)c4ccnc(C(C)(F)F)c4)ccc3C)ccn2)ccn1 [Example 441] | – | – | – | 1000 to 10000 nM
38 | CNC(=O)c1cc(-c2cncc(-c3cc(NC(=O)c4ccnc(C(C)(C)C#N)c4)ccc3C)c2)ccn1 [Example 442] | – | – | – | 500 to 1000 nM
39 | CNC(=O)c1cc(-c2cc(-c3cc(NC(=O)c4ccnc(C(C)C)c4)ccc3C)ccn2)ccn1 [Example 443] | – | – | – | 500 to 1000 nM
40 | CNC(=O)c1cc(-c2cncc(-c3cc(NC(=O)c4ccnc(C(C)C)c4)ccc3C)c2)ccn1 [Example 445] | – | – | – | 1000 to 10000 nM
41 | CNC(=O)c1cc(-c2cncc(-c3cc(NC(=O)c4ccnc(C(C)C)c4)ccc3C)c2)ncn1 [Example 446] | – | – | – | 1000 to 10000 nM
42 | Cc1ccc(NC(=O)c2ccnc(C(C)C)c2)cc1-c1ccnc(-c2ccnc(NC(=O)C3CC3)c2)c1 [Example 467] | – | – | – | 500 to 1000 nM
43 | Cc1ncc(NC(=O)c2ccnc(C(C)C)c2)cc1-c1ccnc(-c2ccnc(NC(=O)C3CC3)c2)c1 [Example 468] | – | – | – | 500 to 1000 nM
44 | CNC(=O)c1cc(-c2cc(-c3cc(NC(=O)c4ccnc(C(C)(C)F)c4)ccc3C)c(F)cn2)ccn1 [Example 469] | – | – | – | 1000 to 10000 nM
45 | CNC(=O)c1cc(-c2cc(-c3cc(NC(=O)c4ccnc(C(C)(C)F)c4)ccc3C)cc(C)n2)ccn1 [Example 470] | – | – | – | 1000 to 10000 nM
46 | Cc1ccc(NC(=O)c2ccnc(C(C)(C)F)c2)cc1-c1ccnc(-c2ccnc(C(N)=O)c2)c1 [Example 476] | – | – | – | 1000 to 10000 nM
47 | CNC(=O)c1cc(-c2cc(-c3cc(NC(=O)c4ccnc(C(C)(C)F)c4)ccc3F)ccn2)ccn1 [Example 479] | – | – | – | 1000 to 10000 nM
48 | CNC(=O)c1cc(-c2cc(-c3cc(NC(=O)c4ccnc(C(C)(C)F)c4)cc(F)c3C)ccn2)ccn1 [Example 480] | – | – | – | 1000 to 10000 nM
49 | CNC(=O)c1cc(-c2cc(-c3cc(NC(=O)c4ccnc(C(C)(C)F)c4)c(F)cc3F)ccn2)ccn1 [Example 482] | – | – | – | 1000 to 10000 nM
50 | Cc1cc(-c2cc(NC(=O)c3ccnc(C(C)(C)F)c3)ccc2C)cc(-c2ccnc(C(N)=O)c2)n1 [Example 484] | – | – | – | 1000 to 10000 nM
